Source: patent US12559492B2, “BRAF degraders” (C4 Therapeutics, Inc., priority 2020, dated 2026)
Counter-ions that a name gives are not always drawn.

Biological target: BRAF^V600E protein (Homo sapiens, UniProt P15056, V600E)
Test: HiBiT cellular BRAF V600E degradation assay
Assay type: cell-based
Details: 24 h incubation; for DC50: A375.10 cells (HiBiT tag knocked in at N-terminal of BRAF V600E), concentration at which 50% of total cellular BRAF V600E is degraded; for Emax: A375.10 cells, Emax = amount of residual protein remaining in the cell after compound treatment, read-out: HiBit 24 h Emax

Chain of BRAF^V600E protein (P15056 whole entry V600E): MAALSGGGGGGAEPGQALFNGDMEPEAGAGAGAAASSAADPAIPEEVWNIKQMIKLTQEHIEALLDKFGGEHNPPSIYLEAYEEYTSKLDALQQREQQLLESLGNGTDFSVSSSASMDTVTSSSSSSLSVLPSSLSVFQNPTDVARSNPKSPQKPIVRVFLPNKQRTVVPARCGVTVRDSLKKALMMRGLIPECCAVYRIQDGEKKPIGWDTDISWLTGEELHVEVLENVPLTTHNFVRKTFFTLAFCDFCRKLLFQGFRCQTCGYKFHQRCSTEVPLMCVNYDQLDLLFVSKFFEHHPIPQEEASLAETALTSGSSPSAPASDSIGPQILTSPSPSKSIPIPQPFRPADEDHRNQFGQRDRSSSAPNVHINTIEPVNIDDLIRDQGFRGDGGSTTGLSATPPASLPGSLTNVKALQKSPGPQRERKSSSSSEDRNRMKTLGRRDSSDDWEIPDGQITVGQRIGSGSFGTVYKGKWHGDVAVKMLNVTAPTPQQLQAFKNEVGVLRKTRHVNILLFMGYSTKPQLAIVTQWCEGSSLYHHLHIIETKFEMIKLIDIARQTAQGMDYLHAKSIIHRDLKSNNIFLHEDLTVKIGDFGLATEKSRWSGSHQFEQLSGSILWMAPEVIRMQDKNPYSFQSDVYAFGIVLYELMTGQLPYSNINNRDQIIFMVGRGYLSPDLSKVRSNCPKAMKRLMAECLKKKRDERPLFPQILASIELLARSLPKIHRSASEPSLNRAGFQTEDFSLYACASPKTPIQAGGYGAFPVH

Row | DC50 | Emax | Compound
1 | 32 nM | 9% | CCN(C)S(=O)(=O)Nc1ccc(F)c(C(=O)c2c[nH]c3ncc(-c4ccc(N5CCC(NCC(=O)N6CCC(c7ccc(OC8CCC(=O)NC8=O)cc7)CC6)CC5)cc4)cc23)c1F (stereo not shown) [Example A99, 5-[4-[4-[[2-[4-[4-(2,6-Dioxopiperidin-3-yl)oxyphenyl]piperidin-1-yl]-2-oxoethyl]amino]piperidin-1-yl]phenyl]-3-[3-[[ethyl(methyl)sulfamoyl]amino]-2,6-difluorobenzoyl]-1H-pyrrolo[2,3-b]pyridine;hydrochloride]
2 | 10 nM | 11% | CCN(C)S(=O)(=O)Nc1ccc(F)c(C(=O)c2c[nH]c3ncc(-c4cnc(N5CCC(NCC(=O)N6CCC(c7ccc(NC8CCC(=O)NC8=O)cc7)CC6)CC5)nc4)cc23)c1F (stereo not shown) [Example A100, 5-[2-[4-[[2-[4-[4-[(2,6-Dioxopiperidin-3-yl)amino]phenyl]piperidin-1-yl]-2-oxoethyl]amino]piperidin-1-yl]pyrimidin-5-yl]-3-[3-[[ethyl(methyl)sulfamoyl]amino]-2,6-difluorobenzoyl]-1H-pyrrolo[2,3-b]pyridine;hydrochloride]
3 | 20 nM | 19% | CCN(C)S(=O)(=O)Nc1ccc(F)c(C(=O)c2c[nH]c3ncc(-c4ccc(N5CCC(N(C)CC(=O)N6CCC(c7ccc(NC8CCC(=O)NC8=O)cn7)CC6)CC5)nc4)cc23)c1F (stereo not shown) [Example A101, 5-[6-[4-[[2-[4-[5-[(2,6-Dioxopiperidin-3-yl)amino]pyridin-2-yl]piperidin-1-yl]-2-oxoethyl]-methylamino]piperidin-1-yl]pyridin-3-yl]-3-[3-[[ethyl(methyl)sulfamoyl]amino]-2,6-difluorobenzoyl]-1H-pyrrolo[2,3-b]pyridine; hydrochloride]
4 | 33 nM | 12% | CCN(C)S(=O)(=O)Nc1ccc(F)c(C(=O)c2c[nH]c3ncc(-c4cnc(N5CCC(NCC(=O)N6CCC(c7ccc(OC8CCC(=O)NC8=O)cc7)CC6)CC5)nc4)cc23)c1F (stereo not shown) [Example A102, 5-[2-[4-[[2-[4-[4-(2,6-Dioxopiperidin-3-yl)oxyphenyl]piperidin-1-yl]-2-oxoethyl]amino]piperidin-1-yl]pyrimidin-5-yl]-3-[3-[[ethyl(methyl)sulfamoyl]amino]-2,6-difluorobenzoyl]-1H-pyrrolo[2,3-b]pyridine;formic acid]
5 | 10 nM | 7% | CCN(C)S(=O)(=O)Nc1ccc(F)c(C(=O)c2c[nH]c3ncc(-c4ccc(N5CCN(C(=O)CN6CCC(c7ccc(N8CCC(=O)NC8=O)cc7)CC6)CC5)nc4)cc23)c1F [Example A104, 5-[6-[4-[2-[4-[4-(2,4-Dioxo-1,3-diazinan-1-yl)phenyl]piperidin-1-yl]acetyl]piperazin-1-yl]pyridin-3-yl]-3-[3-[[ethyl(methyl)sulfamoyl]amino]-2,6-difluorobenzoyl]-1H-pyrrolo[2,3-b]pyridine]
6 | 24 nM | 30% | O=C1CCC(Nc2ccc(CC(=O)N[C@H]3C[C@H](OC4CCN(c5ccc(-c6cnc7[nH]cc(C(=O)c8c(F)ccc(NS(=O)(=O)N9CCCC9)c8F)c7c6)cn5)CC4)C3)cc2)C(=O)N1 (stereo partly shown) [Example A105, N-[3-[1-[5-[3-[2,6-Difluoro-3-(pyrrolidin-1-ylsulfonylamino)benzoyl]-1H-pyrrolo[2,3-b]pyridin-5-yl]pyridin-2-yl]piperidin-4-yl]oxycyclobutyl]-2-[4-[(2,6-dioxopiperidin-3-yl)amino]phenyl]acetamide]
7 | 14 nM | 8% | CC(C)S(=O)(=O)Nc1ccc(F)c(C(=O)c2c[nH]c3ncc(-c4ccc(N5CCN(C(=O)CN6CCC(c7ccc(N8CCC(=O)NC8=O)cc7)CC6)CC5)nc4)cc23)c1F [Example A108, N-[3-[5-[6-[4-[2-[4-[4-(2,4-Dioxo-1,3-diazinan-1-yl)phenyl]piperidin-1-yl]acetyl]piperazin-1-yl]pyridin-3-yl]-1H-pyrrolo[2,3-b]pyridine-3-carbonyl]-2,4-difluorophenyl]propane-2-sulfonamide]
8 | 44 nM | 13% | CCN(C)S(=O)(=O)Nc1ccc(F)c(C(=O)c2c[nH]c3ncc(-c4ccc(N5CCC(NCC(=O)N6CCC(c7ccc(OC8CCC(=O)NC8=O)cc7)CC6)CC5)nc4)cc23)c1F (stereo not shown) [Example A109, 5-[6-[4-[[2-[4-[4-(2,6-Dioxopiperidin-3-yl)oxyphenyl]piperidin-1-yl]-2-oxoethyl]amino]piperidin-1-yl]pyridin-3-yl]-3-[3-[[ethyl(methyl)sulfamoyl]amino]-2,6-difluorobenzoyl]-1H-pyrrolo[2,3-b]pyridine; formic acid]
9 | 13 nM | 13% | CCN(C)S(=O)(=O)Nc1ccc(F)c(C(=O)c2c[nH]c3ncc(-c4ccc(N5CCC(NCC(=O)N6CCC(c7ccc(NC8CCC(=O)NC8=O)cc7)CC6)CC5)nc4)cc23)c1F (stereo not shown) [Example A110, 5-[6-[4-[[2-[4-[4-[(2,6-Dioxopiperidin-3-yl)amino]phenyl]piperidin-1-yl]-2-oxoethyl]amino]piperidin-1-yl]pyridin-3-yl]-3-[3-[[ethyl(methyl)sulfamoyl]amino]-2,6-difluorobenzoyl]-1H-pyrrolo[2,3-b]pyridine;formic acid]
10 | 15 nM | 15% | CCN(C)S(=O)(=O)Nc1ccc(F)c(C(=O)c2c[nH]c3ncc(-c4cnc(N5CCC(CC(=O)N6CCC(c7ccc(NC8CCC(=O)NC8=O)cc7)CC6)CC5)nc4)cc23)c1F (stereo not shown) [Example A112, 5-[2-[4-[2-[4-[4-[(2,6-Dioxopiperidin-3-yl)amino]phenyl]piperidin-1-yl]-2-oxoethyl]piperidin-1-yl]pyrimidin-5-yl]-3-[3-[[ethyl(methyl)sulfamoyl]amino]-2,6-difluorobenzoyl]-1H-pyrrolo[2,3-b]pyridine]
11 | 53 nM | 33% | CCN(C)S(=O)(=O)Nc1ccc(F)c(C(=O)c2c[nH]c3ncc(-c4cnc(N5CCC(CC(=O)N6CCC(c7ccc(N8CCC(=O)NC8=O)cc7)CC6)CC5)nc4)cc23)c1F [Example A113, 5-[2-[4-[2-[4-[4-(2,4-Dioxo-1,3-diazinan-1-yl)phenyl]piperidin-1-yl]-2-oxoethyl]piperidin-1-yl]pyrimidin-5-yl]-3-[3-[[ethyl(methyl)sulfamoyl]amino]-2,6-difluorobenzoyl]-1H-pyrrolo[2,3-b]pyridine]
12 | 8.83 nM | 7.68% | CCN(C)S(=O)(=O)Nc1cccc(C(=O)c2c[nH]c3ncc(-c4ccc(N5CCN(C(=O)CN6CCC(c7ccc(NC8CCC(=O)NC8=O)cc7)CC6)CC5)nc4)cc23)c1Br (stereo not shown) [Example A114, 3-[2-Bromo-3-[[ethyl(methyl)sulfamoyl]amino]benzoyl]-5-[6-[4-[2-[4-[4-[(2,6-dioxopiperidin-3-yl)amino]phenyl]piperidin-1-yl]acetyl]piperazin-1-yl]pyridin-3-yl]-1H-pyrrolo[2,3-b]pyridine]
13 | 204 nM | 15% | O=C1CCC(Oc2ccc(C3CCN(CC(=O)N4CC5(C4)CN(c4ccc(-c6cnc7[nH]cc(C(=O)c8c(F)ccc(NS(=O)(=O)N9CC[C@@H](F)C9)c8F)c7c6)cn4)C5)CC3)cc2)C(=O)N1 (stereo partly drawn) [Example A115, (3R)—N-[3-[5-[6-[2-[2-[4-[4-(2,6-dioxopiperidin-3-yl)oxyphenyl]piperidin-1-yl]acetyl]-2,6-diazaspiro[3.3]heptan-6-yl]pyridin-3-yl]-1H-pyrrolo[2,3-b]pyridine-3-carbonyl]-2,4-difluorophenyl]-3-fluoropyrrolidine-1-sulfonamide]
14 | 26 nM | 8% | O=C1CCC(Oc2ccc(C3CCN(CC(=O)N4CC5(C4)CN(c4ccc(-c6cnc7[nH]cc(C(=O)c8c(F)ccc(NS(=O)(=O)N9CCCC9)c8F)c7c6)cc4)C5)CC3)cc2)C(=O)N1 (stereo not shown) [Example A116, N-[3-[5-[4-[2-[2-[4-[4-(2,6-Dioxopiperidin-3-yl)oxyphenyl]piperidin-1-yl]acetyl]-2,6-diazaspiro[3.3]heptan-6-yl]phenyl]-1H-pyrrolo[2,3-b]pyridine-3-carbonyl]-2,4-difluorophenyl]pyrrolidine-1-sulfonamide]
15 | 192 nM | 24% | O=C(c1c(F)ccc(NS(=O)(=O)N2CCCC2)c1F)c1c[nH]c2ncc(-c3ccc(N4CC5(CN(C(=O)CN6CCC(c7ccc(NC89CC(C8)C(=O)NC9=O)cc7)CC6)C5)C4)cc3)cc12 [Example A117, N-[3-[5-[4-[2-[2-[4-[4-[(2,4-Dioxo-3-azabicyclo[3.1.1]heptan-1-yl)amino]phenyl]piperidin-1-yl]acetyl]-2,6-diazaspiro[3.3]heptan-6-yl]phenyl]-1H-pyrrolo[2,3-b]pyridine-3-carbonyl]-2,4-difluorophenyl]pyrrolidine-1-sulfonamide]
16 | 29 nM | 11% | O=C1CCC(c2ccc(C3CCN(CC(=O)N4CC5(C4)CN(c4ncc(-c6cnc7[nH]cc(C(=O)c8c(F)ccc(NS(=O)(=O)N9CCCC9)c8F)c7c6)cn4)C5)CC3)cc2)C(=O)N1 (stereo not shown) [Example A118, N-[3-[5-[2-[2-[2-[4-[4-(2,6-Dioxopiperidin-3-yl)phenyl]piperidin-1-yl]acetyl]-2,6-diazaspiro[3.3]heptan-6-yl]pyrimidin-5-yl]-1H-pyrrolo[2,3-b]pyridine-3-carbonyl]-2,4-difluorophenyl]pyrrolidine-1-sulfonamide]

Row | Compound | DC50 | Emax
17 | CC(C)S(=O)(=O)Nc1ccc(F)c(C(=O)c2c[nH]c3ncc(-c4ccc(N5CCN(C(=O)C6CC(N7CCC(c8ccc(NC9CCC(=O)NC9=O)cc8)CC7)C6)CC5)nc4)cc23)c1F (stereo not shown) [Example A107, N-[3-[5-[6-[4-[3-[4-[4-[(2,6-Dioxopiperidin-3-yl)amino]phenyl]piperidin-1-yl]cyclobutanecarbonyl]piperazin-1-yl]pyridin-3-yl]-1H-pyrrolo[2,3-b]pyridine-3-carbonyl]-2,4-difluorophenyl]propane-2-sulfonamide] | 12 nM | 12%
